The series in a line: Human HepG2 cell viability assay in 384 well format. Type of series: toxicity, cell-based. Also noted: dose 125 nL, time 70.5 hour; concentration not given beside the values. The conditions noted are these: HepG2 cells, read-out: Inhibition.
In the case of `O=c1ccc2c(n1CC1CC1)CCN(c1ncccn1)CC2`, the cytotoxicity at 70.5 h is -4.49%. For `CCS(=O)(=O)N1CCN(C)c2ncccc2C1`, the cytotoxicity at 70.5 h was -7.16%.

In the case of `CC(=O)N1CCO[C@@H]2CN(S(=O)(=O)c3ccc(C)cc3)CC[C@@H]2C1`, the cytotoxicity at 70.5 h turned out to be 11.2%. `CCN(C(=O)c1nc2c(s1)CCCN2C(C)=O)C(C)C`: the cytotoxicity at 70.5 h was 2.41%. Consider `c1cc(-c2n[nH]cc2-c2ccnc(N3CCCCCC3)n2)ccn1`, for which the cytotoxicity at 70.5 h stood at 0.607%. Under `CC(C)[C@H](CO)Nc1nccc(-c2c[nH]nc2-c2ccncc2)n1` stands -3.12%; under `Cc1ncc(-c2ccnc(NCCc3ccc(F)cc3)n2)c(=O)[nH]1`, -12.9%. `CC(=O)N1CCC(n2nccc2-c2cnc(NCCO)nc2)CC1`: the cytotoxicity at 70.5 h is -9.44%. With `CNc1nc2c(s1)C(=O)CN(C(=O)NCCc1ccccc1)C2` the figure was 17.6%; with `CC[C@@H](CO)Nc1nccc(-c2cnc3sc(C)cn3c2=O)n1`, 15.2%. For the molecule `CC(=O)Nc1nc2c(s1)C1(CCCC1)Nc1ccccc1S2`, the cytotoxicity at 70.5 h was -3.55%. With `Cc1ncc(-c2ccnc(N3CC[C@H](O)C3)n2)c(-c2cccnc2)n1` the figure was -6.52%; with `CC(C)CNc1nccc(-c2cnc3sc(Cl)cn3c2=O)n1`, -6.64%; with `O=c1[nH]c(-c2ccncc2)ncc1-c1ccnc(N2CCOCC2)n1`, -2.39%. Consider `C[C@@H](CO)Nc1nccc(-c2cnc3sc(Cl)cn3c2=O)n1`, for which the cytotoxicity at 70.5 h is -8.27%. Take `CC(C)[C@H](NS(C)(=O)=O)C(=O)NCc1cc(-c2ccco2)n[nH]1`: the cytotoxicity at 70.5 h was -13.8%. For `CCNc1nc(-c2cccnc2)c(-c2ccnc(NCCO)n2)s1`, the cytotoxicity at 70.5 h was -13.3%. On to `CC(=O)N1CCC(n2ccc(-c3cnc(NCC(C)C)nc3)n2)CC1`, for which the cytotoxicity at 70.5 h is -5.12%. As to `CC[C@H](C)Nc1ncc(-c2ccn(C3CCN(C(C)=O)CC3)n2)cn1`, the cytotoxicity at 70.5 h is -5.16%. With `Cc1csc2ncc(-c3ccnc(N4CCC[C@@H]4CO)n3)c(=O)n12` the figure was -2.68%; with `Cc1cn2c(=O)c(-c3ccnc(NC4CCOCC4)n3)cnc2s1`, -4.12%; with `CC[C@@H](C)[C@@H](N)C(=O)Nc1cccc(-c2cnc(NCCO)nc2)c1`, -7.48%. For the molecule `c1cncc(-c2nc(C3CC3)ncc2-c2ccnc(N3CCCC3)n2)c1`, the cytotoxicity at 70.5 h was -2.86%. Under `CC(C)Nc1nc2c(s1)C(=O)CN(C(=O)NCc1ccccc1)C2` stands 1.44%. With `CC(C)CC(=O)N1CC(=O)c2sc(Nc3ccc(F)cc3)nc2C1` the figure was 1.95%. For `Cc1cc2nc(C3CCCCC3)c(-c3ccnc(NCCO)n3)cn2n1`, the cytotoxicity at 70.5 h is -5.35%. Regarding `CC(C)CC(=O)N1CC(=O)c2sc(Nc3ccc(C#N)cc3)nc2C1`, the cytotoxicity at 70.5 h came out at 0.0296%.

On to `CC(C)CC(=O)N1CC(=O)c2sc(NCCc3ccccc3)nc2C1`, for which the cytotoxicity at 70.5 h was found to be 0.452%.

As for `CC(=O)Nc1nc2c(s1)C1(CCN(C)CC1)Nc1ccccc1S2`, the cytotoxicity at 70.5 h worked out at 3.04%. Turning to `CNCC(=O)Nc1ccc(-c2cnc(NCCS(C)(=O)=O)nc2)cc1`, the cytotoxicity at 70.5 h was -0.605%.

Consider `CC[C@H](C)[C@H](N)C(=O)Nc1nc(-c2cnc(N(C)CCO)nc2)cs1`, for which the cytotoxicity at 70.5 h was -1.04%. With `CS(=O)(=O)NCc1cc(-c2cc(F)cc(F)c2)nc(N2CCOCC2)n1` the figure was -13.9%; with `CN1CCCN(c2nccc(-c3c[nH]c4ccc(Br)cc34)n2)CC1`, 9.19%; with `Cc1[nH]c2ccccc2c1-c1ccnc(NCCN2CCOCC2)n1`, 25.2%. Under `Cc1csc2ncc(-c3ccnc(N4CCCC[C@@H]4CO)n3)c(=O)n12` stands 20.9%. As to `O=c1c(-c2ccnc(NC3CCOCC3)n2)cnc2sc(Cl)cn12`, the cytotoxicity at 70.5 h stood at 1.36%. With `Cc1ncc(-c2ccnc(N3CCCCC3)n2)c(=O)[nH]1` the figure was -7.09%; with `CNc1nc2c(s1)C(=O)CN(C(=O)NCc1ccccc1)C2`, -9.93%. With `CCNc1nc2c(s1)C(=O)CN(C(=O)NCCc1ccccc1)C2` the figure was -17.7%; with `COc1ccc(OC)c(C(C(=O)O)N2CCSCC2)c1` (stereo not given), -4.28%; with `CCOc1ccc(-c2ccnc(C)n2)cc1C(=O)O`, -4.51%. Under `Cc1noc(C)c1S(=O)(=O)N1C[C@@H](C(=O)O)[C@H](c2ccccn2)C1` stands -10.9%; under `Cc1nccn1CCCn1c(=O)cnc2ccccc21`, -10.5%; under `CN1CCCCC1C(=O)N1CCN(c2ccccc2C#N)CC1` (stereo not given), -2.64%. Turning to `CC(C)c1cc(CN(C)C(=O)CN2CCC(C(N)=O)CC2)no1`, the cytotoxicity at 70.5 h was -14.7%. With `CCCn1ncc(C(=O)N2CCN(C3CCCC3)CC2)c1C` the figure was -3.82%. For `Cc1ccc2[nH]c(CN3CC[C@@H](N4CCN(C)CC4)[C@H](O)C3)c(C)c2c1`, the cytotoxicity at 70.5 h was -6.53%.

Take `CC(O)c1cccc(N2CCC3(CCC(=O)N(CC(N)=O)C3)CC2)n1` (stereo not given): the cytotoxicity at 70.5 h is -11.2%. With `CNc1cc(C)nc(NC2CCCN(C3Cc4ccccc4C3)C2)n1` (stereo not given) the figure was 28.6%.

Regarding `CC(C)Cc1n[nH]c(C2CC(=O)N(CC(C)C)C2)n1` (stereo not given), the cytotoxicity at 70.5 h is -5.1%. Under `CC(C)N[C@@H]1CC[C@@H]1NC(=O)c1ccccc1OC(F)(F)C(F)F` stands 14.2%; under `CCn1cc(CN2CCCn3nc(CNS(C)(=O)=O)cc3C2)c(C)n1`, 13.3%; under `Cc1ccc(C(=O)N2CCN(C)C3(CCC(=O)N(C)CC3)C2)c(F)c1` (stereo not given), -9.61%. `CCCc1cncnc1N1CCC(NCc2ccc(O)cc2)CC1`: the cytotoxicity at 70.5 h is -2.53%.

On to `CCn1ccnc1CN(C)c1nc(-c2ccc(Cl)cc2)nc2c1CNC2`, for which the cytotoxicity at 70.5 h is -9.22%. For the molecule `Cc1nn(C)cc1-c1ccnc(N2CCN(c3cnccn3)CC2)n1`, the cytotoxicity at 70.5 h was -0.227%.

For the molecule `O=C(c1cn2ccsc2n1)N1CCN(CC2CC2)[C@@H]2CS(=O)(=O)C[C@@H]21`, the cytotoxicity at 70.5 h is -10.5%. As for `O=C(c1cn(CCN2CCCCC2)nn1)N1CCCCO1`, the cytotoxicity at 70.5 h came to 11%.

For the molecule `O=C1NC2(CCN(C(=O)c3ccc(Cl)cn3)CC2)CC1c1ccccc1` (stereo not given), the cytotoxicity at 70.5 h stood at 8.76%.

Consider `CCc1cnc(NCc2nc(CSC)no2)nc1`, for which the cytotoxicity at 70.5 h turned out to be 10.1%. Under `CCCc1cc(C(=O)N(Cc2cccnc2)C[C@@H]2CCC(=O)N2)no1` stands -6.41%. As for `Cc1cnc(C)c(N2CCCC(C/C=C/c3ccccc3)(C(=O)O)C2)n1` (stereo not given), the cytotoxicity at 70.5 h was -7.68%.

Consider `CN1CCN(Cc2ccccc2Oc2cncc(C(N)=O)n2)CC1`, for which the cytotoxicity at 70.5 h is -3.62%. Under `Nc1cc(C(=O)N2CCCC(C(=O)CCc3ccccc3)C2)ccn1` (stereo not given) stands -3.17%. Under `CC(C)c1ncc(CN2C[C@@H](CN3CCC(O)CC3)[C@@H](CO)C2)cn1` stands 37.8%.

In the case of `CN1CCN(c2ccc(C(=O)N3CCCC(c4ncc[nH]4)C3)cc2)CC1` (stereo not given), the cytotoxicity at 70.5 h is -9.77%.

In the case of `CC1(C)CNC(=O)c2nc(-c3nnn[nH]3)[nH]c2C1`, the cytotoxicity at 70.5 h is -3.01%. In the case of `O=C(CC1COCCN1)N1CCC2(CCc3ccccc32)CC1` (stereo not given), the cytotoxicity at 70.5 h was determined as 8.47%. With `CCC[C@@H]1CN(S(=O)(=O)c2ccc3[nH]c(=O)[nH]c3c2)C[C@H]1NC(C)=O` the figure was -1.53%. Consider `Cc1cc(CN(C)C(=O)c2cc(COc3ccccc3)[nH]n2)n[nH]1`, for which the cytotoxicity at 70.5 h was -3.12%. In the case of `Cc1cccc(C)c1C(=O)N1C[C@@H](CN2CCOCC2)[C@@H](CO)C1`, the cytotoxicity at 70.5 h was -7.08%. With `CCc1ccccc1OC1CN(C(=O)c2ccnc(OC)c2)C1` the figure was 11.1%.

`Cc1cc(C[C@@H]2COC[C@@H]2NC(=O)CN2CCCCCC2)on1`: the cytotoxicity at 70.5 h was -10.1%. Regarding `CCOCc1nccc(-c2ccc(OCC)c(C(=O)O)c2)n1`, the cytotoxicity at 70.5 h is 2.25%. With `CCCn1cnnc1CNC(=O)CC1C(=O)NCCN1CC(C)(C)C` (stereo not given) the figure was -12.5%; with `COc1ccc(Cn2cc(C(=O)N(C)Cc3ccn[nH]3)nn2)cc1`, -18.5%; with `Cc1cc(-c2cccc3c2CCNC3)cnc1-n1cnnc1`, -5.08%. For `CCc1cc(N2CCC(N[C@@H]3CS(=O)(=O)C[C@H]3O)CC2)nc(N(C)C)n1`, the cytotoxicity at 70.5 h came to 0.303%. As for `CCC[C@H]1CN(C(=O)CCn2ccccc2=O)C[C@@H]1NS(C)(=O)=O`, the cytotoxicity at 70.5 h is -16.2%. With `Fc1cc(Oc2ccc(C(F)(F)F)cn2)cc(F)c1CN1CCCC1` the figure was -4.12%; with `CC(C)C1CN(c2cccc(C#N)n2)CCCN1CC1CC1` (stereo not given), -11.5%. As to `Fc1ccccc1-c1noc2c1CN(CCN1CCOCC1)CC2`, the cytotoxicity at 70.5 h came out at 7.36%. With `CN(C)CCN(C)C1CCCN(C(=O)c2ccc(Cn3ccnc3)o2)C1` (stereo not given), the cytotoxicity at 70.5 h is -9.94%. Under `Cc1cccc(C(C(=O)N(C)Cc2cc(C)no2)N(C)C)c1` (stereo not given) stands -7.53%.

Consider `COCCCC1(CO)CCCN(CCOC)C1` (stereo not given), for which the cytotoxicity at 70.5 h is -4.83%. With `Cc1cccc(SC2CCN(C(=O)CCNS(C)(=O)=O)CC2)c1`, the cytotoxicity at 70.5 h is -13.1%. Under `Cc1cnc(NCc2cnn(C)c2)nc1-c1cnn(C)c1` stands 13.5%; under `C[C@@H]1CN(S(=O)(=O)c2ccc(F)cc2F)C[C@]1(C)O`, -1.56%. With `Nc1ncc(-c2csc(NC(=O)C[C@H]3COCCN3)n2)cn1` the figure was -6.96%; with `CC(C)[C@H](N)CC(=O)Nc1nc(-c2cnc(N3CCOCC3)nc2)cs1`, -1.39%; with `CN1CCN(C2COC3(CCN(c4ccc(C#N)cc4)CC3)C2)CC1` (stereo not given), -6.07%.

As for `CN(C)CCn1c2c(ccc1=O)CC(NC(=O)c1ccsc1)CC2` (stereo not given), the cytotoxicity at 70.5 h turned out to be 11.3%. With `CCN1CCn2c(-c3cccc(F)c3)cnc2C12CCN(C(C)=O)CC2` the figure was 2.55%; with `CN(C)CCN1CCO[C@H]2CN(C(=O)c3ccsc3)C[C@H]21`, -6.87%. Consider `CN(C)C1CCC2(CCN(Cc3cccnc3)CC2)c2ccccc21` (stereo not given), for which the cytotoxicity at 70.5 h is -3.39%.

(Values after ChEMBL document CHEMBL3507680, “University of Dundee, Gates Library screen for HepG2 cell viability”.)
